Key:
hrMAO-A = molecular target: T1, hrMAO-A (Homo sapiens, UniProt P21397); test: Metabolic stability in the presence of hrMAO-A; type: in vitro ADME; conditions: for % Remaining of Initial, 0 min / % Remaining of Initial, 5 min / % Remaining of Initial, 10 min / % Remaining of Initial, 20 min / % Remaining of Initial, 30 min / % Remaining of Initial, 60 min / % Remaining of Initial, 120 min / Half-life: hrMAO-A; for MAO (metabolized or not): last assay time point 120 min
T1 construct: purchased XenoTech Lot #8213001
T1 sequence (P21397 1-527): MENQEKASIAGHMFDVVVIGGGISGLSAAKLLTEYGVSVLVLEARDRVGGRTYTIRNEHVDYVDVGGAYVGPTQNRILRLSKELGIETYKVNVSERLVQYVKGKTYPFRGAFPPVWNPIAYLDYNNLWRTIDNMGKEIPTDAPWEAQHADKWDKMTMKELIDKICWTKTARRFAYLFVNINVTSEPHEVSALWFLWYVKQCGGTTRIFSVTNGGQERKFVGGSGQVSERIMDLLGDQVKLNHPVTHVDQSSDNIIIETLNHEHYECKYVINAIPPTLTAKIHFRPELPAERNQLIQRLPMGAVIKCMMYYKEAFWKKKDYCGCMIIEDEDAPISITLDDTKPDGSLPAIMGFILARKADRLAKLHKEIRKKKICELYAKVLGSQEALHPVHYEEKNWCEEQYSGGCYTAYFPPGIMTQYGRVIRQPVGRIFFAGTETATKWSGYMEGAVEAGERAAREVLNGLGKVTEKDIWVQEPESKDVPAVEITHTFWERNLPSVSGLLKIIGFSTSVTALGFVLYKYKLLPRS
Experimental: The reaction mixture was prepared as described below. The co-dosed TAs were added into the reaction mixture at a final concentration of 1 microM each. The positive control, kynuramine (25 microM), was run simultaneously with the TAs in a separate reaction. The reaction mixture (without TAs or kynuramine) was equilibrated in a shaking water bath at 37° C. for 5 minutes. The reaction was initiated by the addition of the TAs or kynuramine, and the mixture was incubated in a shaking water bath at 37° C. Aliquots (100 microL) of the TA reaction mixture were withdrawn at 0, 5, 10, 20, 30, 60, and 120 minutes. Aliquots (100 microL) of the positive control reaction mixture were withdrawn at 0 and 30 minutes. TA and kynuramine samples were immediately combined with 100 microL of ice-cold 100% MeCN containing 0.1% formic acid and IS to terminate the reaction. The samples were then mixed and centrifuged to precipitate proteins. All TA samples were assayed by LC-HRAMS. The PARR (analyte to IS) at each time point was compared to the PARR at time 0 to determine the percent remaining at each time point. Reaction composition: hrMAO 0.02 mg/mL; Potassium Phosphate, pH 7.4 100 mM; Magnesium Chloride 5 mM; Test Articles (each) 1 microM.

rat liver microsomes = test: Metabolic stability in rat liver microsomes (RLM); conditions: for RLM (metabolized or not): last assay time point 120 min
[1] = Table 5, d8 and d10 analogs of DMT
[2] = RLM, Table 2, four test articles
[3] = RLM, Table 4, d8 and d10 analogs of DMT

**Q.** For [2H]C([2H])([2H])N(C([2H])([2H])[2H])C([2H])([2H])C([2H])([2H])c1c[nH]c2ccccc12 [DMT-d10], which “stability in the MAO-A enzymatic assay” value (hrMAO-A; MAO-A enzymatic assay) is on record?
**A.** superiority

**Q.** And the “% Remaining of Initial, 0 min” value (hrMAO-A; Table 3, four test articles)?
**A.** 100%

**Q.** And the “% Remaining of Initial, 0 min” value (hrMAO-A; [1])?
**A.** 100.0%

**Q.** What about the “% Remaining of Initial, 5 min” value (hrMAO-A; Table 3, four test articles) of the same compound?
**A.** 107%

**Q.** And the “% Remaining of Initial, 5 min” value (hrMAO-A; [1])?
**A.** 99.0%

**Q.** What about the “% Remaining of Initial, 10 min” value (hrMAO-A; Table 3, four test articles) of the same compound?
**A.** 112%

**Q.** What about the “% Remaining of Initial, 10 min” value (hrMAO-A; [1]) of the same compound?
**A.** 94.9%

**Q.** What about the “% Remaining of Initial, 20 min” value (hrMAO-A; Table 3, four test articles) of the same compound?
**A.** 103%

**Q.** And the “% Remaining of Initial, 20 min” value (hrMAO-A; [1])?
**A.** 95.4%

**Q.** And the “% Remaining of Initial, 30 min” value (hrMAO-A; Table 3, four test articles)?
**A.** 101%

**Q.** What about the “% Remaining of Initial, 30 min” value (hrMAO-A; [1]) of the same compound?
**A.** 91.4%

**Q.** And the “% Remaining of Initial, 60 min” value (hrMAO-A; Table 3, four test articles)?
**A.** 82.2%

**Q.** What about the “% Remaining of Initial, 60 min” value (hrMAO-A; [1]) of the same compound?
**A.** 81.5%

**Q.** And the “% Remaining of Initial, 120 min” value (hrMAO-A; Table 3, four test articles)?
**A.** 68.6%

**Q.** What about the “% Remaining of Initial, 120 min” value (hrMAO-A; [1]) of the same compound?
**A.** 65.8%

**Q.** What about the Half-life (hrMAO-A; Table 3, four test articles) of the same compound?
**A.** > 2 h

**Q.** What about the Half-life (hrMAO-A; [1]) of the same compound?
**A.** > 2 h

**Q.** And the “% Remaining of Initial, 0 min” value (rat liver microsomes; [2])?
**A.** 100%

**Q.** And the “% Remaining of Initial, 0 min” value (rat liver microsomes; [3])?
**A.** 100%

**Q.** What about the “% Remaining of Initial, 5 min” value (rat liver microsomes; [2]) of the same compound?
**A.** 72.5%

**Q.** What about the “% Remaining of Initial, 5 min” value (rat liver microsomes; [3]) of the same compound?
**A.** 69.3%

**Q.** And the “% Remaining of Initial, 10 min” value (rat liver microsomes; [2])?
**A.** 62.2%

**Q.** What about the “% Remaining of Initial, 10 min” value (rat liver microsomes; [3]) of the same compound?
**A.** 56.0%

**Q.** What about the “% Remaining of Initial, 20 min” value (rat liver microsomes; [2]) of the same compound?
**A.** 55.2%

**Q.** What about the “% Remaining of Initial, 20 min” value (rat liver microsomes; [3]) of the same compound?
**A.** 44.9%

**Q.** What about the “% Remaining of Initial, 30 min” value (rat liver microsomes; [2]) of the same compound?
**A.** 50.9%

**Q.** What about the “% Remaining of Initial, 30 min” value (rat liver microsomes; [3]) of the same compound?
**A.** 39.3%

**Q.** What about the “% Remaining of Initial, 60 min” value (rat liver microsomes; [2]) of the same compound?
**A.** 39.6%

**Q.** And the “% Remaining of Initial, 60 min” value (rat liver microsomes; [3])?
**A.** 30.5%

**Q.** What about the “% Remaining of Initial, 120 min” value (rat liver microsomes; [2]) of the same compound?
**A.** 29.4%

**Q.** And the “% Remaining of Initial, 120 min” value (rat liver microsomes; [3])?
**A.** 23.6%

**Q.** What about the metabolic stability (rat liver microsomes; rat liver microsomes, compared with DMT-α,α-d2 and DMT-α,α,β,β-d4) of the same compound?
**A.** Further enhancement of metabolic stability

**Q.** With [2H]c1[nH]c2c([2H])c([2H])c([2H])c([2H])c2c1C([2H])([2H])C([2H])([2H])N(C([2H])([2H])[2H])C([2H])([2H])[2H] [DMT-d15] as the compound, how does the “MAO, % (half-life as % vs. the related nondeuterated compound)” value (hrMAO-A; MAO-A, values in square brackets are within 10% difference (assay's accuracy), no deuteration effect) read?
**A.** 643%

**Q.** And the “half-life compared to DMT-d10” value (rat liver microsomes; RLM assay)?
**A.** no improvement in half-life

**Q.** And the “RLM, % (half-life as % vs. the related nondeuterated compound)” value (rat liver microsomes; RLM, values in square brackets are within 10% difference (assay's accuracy), no deuteration effect)?
**A.** 325%

**Q.** With CCNCCc1c[nH]c2ccccc12 [reference compound] as the compound, how does the “MAO (metabolized or not)” value (hrMAO-A; MAO-A) read?
**A.** R

**Q.** What about the “RLM (metabolized or not)” value (rat liver microsomes; RLM) of the same compound?
**A.** R

**Q.** Which results are given for CCN(C)CCc1c[nH]c2ccccc12 [reference compound]?
**A.** MAO (metabolized or not) (hrMAO-A; MAO-A): R; RLM (metabolized or not) (rat liver microsomes; RLM): R

**Q.** How did the “MAO (metabolized or not)” value (hrMAO-A; MAO-A) turn out when CCN(C)CCc1c[nH]c2ccc(OC)cc12 [reference compound] was run?
**A.** R

**Q.** And the “RLM (metabolized or not)” value (rat liver microsomes; RLM)?
**A.** R

**Q.** How did the “MAO (metabolized or not)” value (hrMAO-A; MAO-A) turn out when CCN(C)CCc1c[nH]c2ccc(O)cc12 [reference compound] was run?
**A.** R

**Q.** And the “RLM (metabolized or not)” value (rat liver microsomes; RLM)?
**A.** R

**Q.** For CCN(C)CCc1c[nH]c2cccc(OC)c12 [reference compound], which “MAO (metabolized or not)” value (hrMAO-A; MAO-A) is on record?
**A.** R

**Q.** And the “RLM (metabolized or not)” value (rat liver microsomes; RLM)?
**A.** R

**Q.** Which results are given for CN(C)CCc1c[nH]c2ccc(O)cc12 [reference compound]?
**A.** MAO (metabolized or not) (hrMAO-A; MAO-A): R; RLM (metabolized or not) (rat liver microsomes; RLM): R

**Q.** For COc1cccc2[nH]cc(CCN(C)C)c12 [reference compound], which “MAO (metabolized or not)” value (hrMAO-A; MAO-A) is on record?
**A.** R

**Q.** And the “RLM (metabolized or not)” value (rat liver microsomes; RLM)?
**A.** R

**Q.** With CNCCc1c[nH]c2ccccc12 [reference compound] as the compound, how does the “MAO (metabolized or not)” value (hrMAO-A; MAO-A) read?
**A.** R

**Q.** And the “RLM (metabolized or not)” value (rat liver microsomes; RLM)?
**A.** R

**Q.** What does the source list for CNCCc1c[nH]c2cccc(O)c12 [reference compound]?
**A.** MAO (metabolized or not) (hrMAO-A; MAO-A): R; RLM (metabolized or not) (rat liver microsomes; RLM): R
